Results as given in PubChem BioAssay (NCI).
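Following 48 hours of exposure in 96-well plates, responses at five concentrations were used to interpolate endpoints linearly. GI50 is the concentration that inhibits growth by half. TGI denotes the concentration required for complete inhibition of growth.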 Where a SMILES comes first, the peptide text is derived from it. [ ]: non-standard residue; d: D form. The star is where a group is joined. ξ: configuration not given here. NMeY = CN[C@@H](Cc1ccc(O)cc1)C(=O)O; Cbz = O=C(OCc1ccccc1)*; ξA = CC(N)C(=O)O

Assays:
Test in all cases: DTP human tumour cell line panel, 48 h
HCC-2998 colon = tested on: HCC-2998 colon
DU-145 prostate = tested on: DU-145 prostate
SF-268 CNS = tested on: SF-268 CNS
SNB-19 CNS = tested on: SNB-19 CNS
U251 CNS = tested on: U251 CNS
UO-31 renal = tested on: UO-31 renal
SK-OV-3 ovarian = tested on: SK-OV-3 ovarian
UACC-257 melanoma = tested on: UACC-257 melanoma
HOP-62 NSCLC = tested on: HOP-62 NSCLC
HOP-92 NSCLC = tested on: HOP-92 NSCLC

Row | Compound | TGI (HCC-2998 colon) [µM] | TGI (DU-145 prostate) [µM] | TGI (SF-268 CNS) [µM] | TGI (SNB-19 CNS) [µM] | TGI (U251 CNS) [µM] | TGI (UO-31 renal) [µM] | TGI (SK-OV-3 ovarian) [µM] | TGI (UACC-257 melanoma) [µM] | TGI (HOP-62 NSCLC) [µM] | TGI (HOP-92 NSCLC) [µM] | GI50 (DU-145 prostate) [µM]
1 | CCCCC[C@H](O)[C@H](C)C=C1SCCCS1 | > 100 | > 100 | > 100 | > 100 | > 100 | > 100 | > 100 | > 100 | > 100 | > 100 | 
2 | O=C1c2ccccc2NC2C(O)c3ccccc3N12 (stereo unspecified) | > 100 | > 100 | > 100 | > 100 | > 100 | > 100 | > 100 | 37.7 | > 100 | > 100 | 
3 | CN(C)c1ccc(/C=C(\NC(=O)c2ccccc2)C(=O)Nc2ccccc2C(=O)NN2C(=O)CSC2c2ccc(N(C)C)cc2)cc1 (stereo unspecified) | 21.4 | > 100 | > 100 | > 100 | > 100 | > 100 | > 100 | 32.2 | > 100 | > 100 | 
4 | CCOC(=O)C1C/C(C)=C(/C)SCCCS1 (stereo unspecified) | > 100 | > 100 | > 100 | > 100 | > 100 | > 100 | > 100 | > 100 | > 100 | > 100 | 
5 | Cc1[nH]c(=O)nc(N/N=C/c2ccc(Cl)c(Cl)c2)c1C(=O)Nc1ccc(Cl)c(Cl)c1 | > 100 | > 41.2 | 40.7 | 32 | 18.5 | > 56.2 | 26.9 | > 41 | 24.8 | 39.3 | 
6 | CCOC(=O)CCC(NC(=O)OCc1ccccc1)C(=O)NNC(=O)OC(C)(C)C (stereo unspecified) | > 100 | > 100 | > 100 | > 100 | > 100 | > 100 | > 100 | > 100 | > 100 | > 100 | 
7 | Cc1cs/c(=N\C(P(=O)(O)O)P(=O)(O)O)n1C | > 100 | > 100 | > 100 | > 100 | > 100 | > 100 | > 100 | > 100 | > 100 | > 100 | 
8 | COc1ccc(C[C@@H](C(=O)NCC(N)=O)N(C)C(=O)[C@@H]2CCCN2C(=O)[C@H](CC(C)C)NC(=O)C(C)NC(=O)OCc2ccccc2)cc1 (stereo partly specified) (Cbz-[ξA]LP[NMeY](Me)G-NH2) | > 100 | > 100 | > 100 | > 100 | > 100 | > 100 | > 100 | > 100 | > 100 | > 100 | 
9 | CCCCn1cc(C(=O)O)c(=O)c2c3sccc3ccc21 | > 100 | > 100 | > 100 | > 100 | > 100 | 50 | > 100 | > 100 | > 100 | > 100 | 
10 | CC1(C)OC[C@@H](/C=C\CCO[Si](c2ccccc2)(c2ccccc2)C(C)(C)C)N1C(=O)c1ccccc1 | 21.4 | 95.9 | 81.4 | > 100 | 45.5 | 36.5 | > 100 | 24.1 | > 100 | 52.7 | 
11 | O=C(Nc1cccc2nsnc12)c1cc2c(cc1Cl)Sc1nccn1S2(=O)=O | 11.7 | 3.17 | 20.4 | 24.8 | 17.6 | 4.41 | > 100 | 3.49 | 4.37 | 25.2 | 1.74
12 | c1ccc2c(c1)CC1c3[nH]c4ccccc4c3CCN21 (stereo unspecified) | > 10 | > 10 | > 10 | > 10 | > 10 | > 10 | > 10 | > 10 | > 10 | > 10 | 
13 | O=C1c2cc3c(cc2CC12Cc1cc4c(cc1C2)CCC4)CCC3 | > 100 | > 100 | > 100 | > 100 | > 100 | > 100 | > 100 | > 100 | > 100 | > 100 | 
14 | O=c1c(Cc2ccc(Cl)cc2)nnc2sc(-c3ccc([N+](=O)[O-])cc3)nn12 | 42.6 | > 100 | > 100 | > 100 | > 100 | > 100 | > 100 | 39.5 | > 100 | > 100 | 
15 | O=C1C/C(=C\O)C(=O)c2ccccc2N1 | > 100 | > 100 | > 100 | > 100 | > 100 | > 100 | > 100 | > 100 | > 100 | > 100 | 
16 | O=C1c2ccccc2S(=O)(=O)c2ccccc21 | > 100 | > 100 | > 100 | > 100 | > 100 | > 100 | > 100 | > 100 | > 100 | > 100 | 
17 | OC(CC(c1ccccc1)c1ccc(Cl)cc1)c1ccc(Cl)cc1 (stereo unspecified) | > 100 | > 100 | > 100 | > 100 | > 100 | > 100 | 90.8 | > 100 | 91.4 | 64.2 | 
18 | CN(C)c1ccc(-c2nc(-c3cc4c(ccc5ccccc54)oc3=O)cs2)cc1 | > 100 | > 100 | > 100 | > 100 | > 100 | > 100 | > 100 | > 100 | > 100 | > 100 | 
